In brackets after ≈: the same amount, converted by molar mass.
Tested on: Neisseria subflava/flavescens/perflava
Experiment: minimum inhibitory concentration (ETEST)
Details: population: general population, antibiotic use in previous 6 months: No
Procedure: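 Oropharyngeal Neisseria isolates from MSM and employees in Belgium were identified to species by MALDI-TOF MS. MICs of azithromycin, ceftriaxone and ciprofloxacin were determined by ETEST on GC agar after 24 h at 36.5 °C and 5-7% CO2, in mg/L. Values beyond the strip range are reported as >256 (azithromycin) or <0.016 (ceftriaxone); isolates that did not grow are NA.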

CC[C@H]1OC(=O)[C@H](C)[C@@H](O[C@H]2C[C@@](C)(OC)[C@@H](O)[C@H](C)O2)[C@H](C)[C@@H](O[C@@H]2O[C@H](C)C[C@H](N(C)C)[C@H]2O)[C@](C)(O)C[C@@H](C)CN(C)[C@H](C)[C@@H](O)[C@]1(C)O [azithromycin]
Details | minimum inhibitory concentration [µg/mL]
isolate id (sample isolate): Co000767_1 | 1 (≈ 1.34 µM)
isolate id (sample isolate): Co000767_2 | 6 (≈ 8.01 µM)
isolate id (sample isolate): Co000767_4 | 1.5 (≈ 2 µM)
isolate id (sample isolate): Co000767_5 | 1.5 (≈ 2 µM)
isolate id (sample isolate): Co000767_6 | 0.75 (≈ 1 µM)
isolate id (sample isolate): Co000767_7 | 1.5 (≈ 2 µM)
isolate id (sample isolate): Co000768_1 | 2 (≈ 2.67 µM)
isolate id (sample isolate): Co000768_2 | 3 (≈ 4.01 µM)
isolate id (sample isolate): Co000769_1 | 4 (≈ 5.34 µM)
isolate id (sample isolate): Co000769_2 | 2 (≈ 2.67 µM)
isolate id (sample isolate): Co000769_4 | 4 (≈ 5.34 µM)
isolate id (sample isolate): Co000770_2 | 2 (≈ 2.67 µM)
isolate id (sample isolate): Co000770_4 | 4 (≈ 5.34 µM)
isolate id (sample isolate): Co000770_6 | 3 (≈ 4.01 µM)
isolate id (sample isolate): Co000771_2 | 6 (≈ 8.01 µM)
isolate id (sample isolate): Co000771_3 | 6 (≈ 8.01 µM)
isolate id (sample isolate): Co000771_5 | 3 (≈ 4.01 µM)
isolate id (sample isolate): Co000772_1 | 2 (≈ 2.67 µM)
isolate id (sample isolate): Co000772_2 | 3 (≈ 4.01 µM)
isolate id (sample isolate): Co000772_4 | 4 (≈ 5.34 µM)
isolate id (sample isolate): Co000772_5 | 3 (≈ 4.01 µM)
isolate id (sample isolate): Co000772_6 | 4 (≈ 5.34 µM)
isolate id (sample isolate): Co000773_1 | 2 (≈ 2.67 µM)
isolate id (sample isolate): Co000773_2 | 3 (≈ 4.01 µM)
isolate id (sample isolate): Co000774_2 | 3 (≈ 4.01 µM)
isolate id (sample isolate): Co000775_1 | 2 (≈ 2.67 µM)
isolate id (sample isolate): Co000775_2 | 4 (≈ 5.34 µM)
isolate id (sample isolate): Co000775_3 | 0.094 (≈ 0.126 µM)
isolate id (sample isolate): Co000776_2 | 32 (≈ 42.7 µM)
isolate id (sample isolate): Co000776_3 | 24 (≈ 32 µM)
isolate id (sample isolate): Co000777_1 | 2 (≈ 2.67 µM)
isolate id (sample isolate): Co000777_2 | 0.25 (≈ 0.334 µM)
isolate id (sample isolate): Co000777_4 | > 256
isolate id (sample isolate): Co000778_1 | 3 (≈ 4.01 µM)
isolate id (sample isolate): Co000778_2 | 2 (≈ 2.67 µM)
isolate id (sample isolate): Co000778_3 | 4 (≈ 5.34 µM)
isolate id (sample isolate): Co000780_4 | 2 (≈ 2.67 µM)
isolate id (sample isolate): Co000781_1 | 1.5 (≈ 2 µM)
isolate id (sample isolate): Co000781_3 | 4 (≈ 5.34 µM)
isolate id (sample isolate): Co000781_4 | 3 (≈ 4.01 µM)
isolate id (sample isolate): Co000782_2 | 8 (≈ 10.7 µM)
isolate id (sample isolate): Co000782_3 | 8 (≈ 10.7 µM)
isolate id (sample isolate): Co000782_4 | 8 (≈ 10.7 µM)
isolate id (sample isolate): Co000783_1 | 4 (≈ 5.34 µM)
isolate id (sample isolate): Co000783_2 | 1.5 (≈ 2 µM)
isolate id (sample isolate): Co000783_5 | 2 (≈ 2.67 µM)
isolate id (sample isolate): Co000784_1 | 1.5 (≈ 2 µM)
isolate id (sample isolate): Co000784_2 | 4 (≈ 5.34 µM)
isolate id (sample isolate): Co000784_5 | 4 (≈ 5.34 µM)
isolate id (sample isolate): Co000785_1 | 1 (≈ 1.34 µM)
isolate id (sample isolate): Co000785_2 | 1.5 (≈ 2 µM)
isolate id (sample isolate): Co000785_3 | 2 (≈ 2.67 µM)
isolate id (sample isolate): Co000785_4 | 1 (≈ 1.34 µM)
isolate id (sample isolate): Co000786_1 | 2 (≈ 2.67 µM)
isolate id (sample isolate): Co000786_2 | 4 (≈ 5.34 µM)
isolate id (sample isolate): Co000787_1 | 2 (≈ 2.67 µM)
isolate id (sample isolate): Co000787_2 | 6 (≈ 8.01 µM)
isolate id (sample isolate): Co000787_4 | 6 (≈ 8.01 µM)
isolate id (sample isolate): Co000788_2 | 3 (≈ 4.01 µM)
isolate id (sample isolate): Co000788_3 | 3 (≈ 4.01 µM)
isolate id (sample isolate): Co000788_5 | 3 (≈ 4.01 µM)
isolate id (sample isolate): Co000789_1 | 6 (≈ 8.01 µM)
isolate id (sample isolate): Co000790_2 | 1 (≈ 1.34 µM)
isolate id (sample isolate): Co000790_4 | 1.5 (≈ 2 µM)

From the supplement of paper PMC8741786
